Assay results published in patent publication US9683009B2, “Bone-selective osteogenic oxysterol-bone targeting agents” (The Regents of the University of California, priority 2013, dated 2017).

Columns and labels:
[1] = in vitro hydroxyapatite (HAP) binding assay; conditions: for % Binding to Hydroxyapatite: 20 μM analyte, HAP 50 mg/mL, 50 mM Tris-HCl pH 7.5, 20% DMSO, 10 minutes; for binding to HAP (in words): in vitro, estradiol at 20 μM
Procedure: An in vitro HAP binding assay was conducted as follows. A 1 mM solution of each analyte was made in 100% dimethylsulfoxide (DMSO). A further dilution was then made to form a 20 μM solution of each analyte in 50 mM Tris-HCl Buffer at pH 7.5 with 20% DMSO. […] The HAP concentration used was 50 mg/mL.
For each analyte, samples were prepared in triplicate. The control samples (1 mL of 20 μM analyte) were transferred into a microcentrifuge tube. To a second set of samples (1 mL of 20 μM analyte) in a microcentrifuge tube was added 50 mg of HAP. The samples were vortexed, gently mixed with inversion for 10 minutes at room temperature, and then centrifuged at 4,400 rpm for 2 minutes to sediment the HAP contained in the samples. The supernatant was transferred to another set of microcentrifuge tubes.
An electronic spectral scan (ultraviolet-visible) from 220-520 nm was obtained for each analyte using a Bio-Rad Smart-Spec 3000. The blank was 50 mM Tris-HCl Buffer, pH 7.5, 20% DMSO. The wavelength of maximum absorbance (λmax) was determined, and the extinction coefficient (ε) was calculated using the Beer-Lambert Law.
The absorbance of the samples incubated with HAP was measured at λmax and the molar concentration of the analyte was then determined using the Beer-Lambert Law and the previously calculated ε. The concentration of the analytes 17β-estradiol, Oxy149, Oxy153, and Oxy155 without and with contact with HAP is shown in FIG. 10.
The fraction of analyte absorbed to HAP for each sample was subsequently calculated using the following formula for % binding, (Ho−H)/Ho*100=% binding with Ho being the mean concentration of control samples and H being the mean calculated concentration of samples treated with HAP.

[2] = half-life in human liver microsomes; type: in vitro ADME; conditions: read-out: half-life in human liver microsomes (HLM)
Description: Naturally-occurring oxysterols, 20(S)-hydroxycholesterol, 22(S)-hydroxycholesterol and 22(R)-hydroxycholesterol can be used as potential osteogenic agents (Kha; Richardson; Amantea). A series of potent osteogenic oxysterol analogues was identified, which are efficacious both in vitro and in vivo. Members of this family of semi-synthetic oxysterols induce robust bone formation and spine fusion in rats when applied locally between transverse processes via a collagen sponge (T. S. Johnson). The compound OXY133 is an analog in the series with enhanced osteogenic activity (FIG. 1) (Montgomery). Oxy133 can induce osteogenesis in cultured human primary mesenchymal stem cells and induce spine fusion in rats in an accelerated manner compared to other analogues. Oxy133 can induce robust osteogenesis in non-rodent models of bone disease such as rabbit spine fusion and rabbit calvarial defect models. Oxy133 is a drug development candidate for local administration with potential application in spine fusion and repair of non-union fractures. […] Furthermore, due to the possible mechanism of osteogenesis, a transient activation of the Hh-pathway in MSCs, increasing selectivity for bone tissue while minimizing the exposure to other tissues may be prudent. This can be accomplished by linking a bone targeting agent (BTA) to the oxysterol molecule that selectively delivers it to bone.

C3H10T1/2 cells = assay: alkaline phosphatase activity in C3H10T1/2 cells after 4 days of treatment; type: cell-based; conditions: 1 μM
Procedure: [drawing 19] (In Oxy133 the 6-hydroxyl group is more reactive toward succinic anhydride than the 3-hydroxyl.) The resulting conjugate, OXY149, retains most of the osteogenic activity of the parent Oxy133 in C3H10T1/2 cells determined by the level of induction of osteogenic differentiation marker, alkaline phosphatase activity after 4 days of treatment (Control: 2±1; Oxy133 (1 μM): 390±10; Oxy149 (1 μM): 100±12; Oxy149 (5 μM): 500±18; Oxy149 (10 μM); 480±12; Oxy149 (20 μM): 470±25). BTA-linker 1 can be attached via the 3- and/or 6-positions of OXY133 using tunable linker attachments.

[3] = system: M2-10B4 bone marrow stromal cells; assay: osteogenic differentiation / ALP enzymatic activity in M2-10B4 bone marrow stromal cells; type: cell-based; conditions: M2-10B4 cells; for ALP Activity: ± SD; for EC50: read-out: EC50 based on activation of ALP
Procedure: Osteogenic differentiation was assessed by the induction of alkaline phosphatase (ALP) enzymatic activity, as well as induced expression of osteogenic differentiation marker genes ALP, bone sialoprotein (BSP), and osterix (OSX).

Hedgehog (Hh) signaling = assay: Hedgehog signaling activation: expression of Hh target genes Ptch and HIP in M2-10B4 cells; type: cell-based
Procedure: The expression of Ptch gene in M2-10B4 cells in vitro 4 days after initial contact with each oxysterol at a concentration of 1 μM is shown in FIG. 8. The expression of HIP gene in M2-10B4 cells in vitro 4 days after initial contact with each oxysterol at a concentration of 1 μM is shown in FIG. 9.

[4] = oxysterol + cyclopamine (Cyc; 5 μM)

SMILES | % Binding to Hydroxyapatite [1] | binding to HAP (in words) [1] | half-life [2] | alkaline phosphatase activity (C3H10T1/2 cells) | ALP Activity ([3]; oxysterol 1 μM) | ALP Activity [3, 4] | activation of Hedgehog (Hh) signaling by induced expression of Ptch and HIP (Hedgehog (Hh) signaling) | osteogenic differentiation (ALP activity, ALP, BSP, OSX gene expression) [3] | EC50 [3]
C[C@]12CC[C@@H]3c4ccc(O)cc4CC[C@H]3[C@@H]1CC[C@@H]2O [17β-estradiol, reference compound] | −1.95% | no binding to HAP |  |  |  |  |  |  | 
CCCCCC[C@](C)(O)[C@H]1CC[C@H]2[C@@H]3C[C@H](O)[C@H]4C[C@@H](O)CC[C@]4(C)[C@H]3CC[C@@]21C [Oxy133, reference compound] |  |  | < 5 min | 390±10 | 714 ± 5 units/mg protein | 31 ± 7 units/mg protein |  |  | 
CCCCCCC(C)(O)C1CCC2C3CC(OC(=O)C(N)CC(=O)NCCOCCOCC(=O)Nc4ccc(OC)c(C(N)=O)c4O)C4CC(O)CCC4(C)C3CCC21C (stereo not shown) [Oxy154] |  | can bind hydroxyapatite (HAP) |  |  | 390 ± 68 units/mg protein | 18 ± 2 units/mg protein | activate Hedgehog (Hh) signaling | induce osteogenic differentiation | 630 nM
CCCCCCC(C)(O)C1CCC2C3CC(OC(=O)C(N)CC(=O)NCCOCCOCC(=O)Nc4ccc(OC)c(C(N)=O)c4O)C4CC(OC(=O)C(N)CC(=O)NCCOCCOCC(=O)Nc5ccc(OC)c(C(N)=O)c5O)CCC4(C)C3CCC21C (stereo not shown) [Oxy155] | 76.68% | can bind hydroxyapatite (HAP) |  |  | 582 ± 8 units/mg protein | 39 ± 2 units/mg protein | activate Hedgehog (Hh) signaling | induce osteogenic differentiation | 330 nM
